Experimental data taken from patent US20150344485A1, “BICYCLIC PYRIMIDONE COMPOUNDS AS INHIBITORS OF LP-PLA2” (GLAXOSMITHKLINE INTELLECTUAL PROPERTY DEVELOPMENT LIMITED, priority 2013, published 2015).
Read-outs that look alike come from different tables or passages of the source.

Columns and labels:
[1] = test system: experimental autoimmune encephalomyelitis (EAE); assay: Rat experimental autoimmune encephalomyelitis (EAE) model, preventive treatment; assay type: in vivo
Protocol: A further study was carried out to study the impact of Lp-PLA2 inhibitors on modulating M1/M2 imbalance. In this study, rats were induced to develop experimental autoimmune encephalomyelitis (EAE) by immunization with myelin basic protein (MBP) antigen and treated with a known Lp-PLA2 inhibitor: 5-((9-Methoxy-4-oxo-6,7-dihydro-4H-pyrimido[6,1-a]isoquinolin-2-yl)oxy)-2-(3-(trifluoromethyl)phenoxy)benzonitrile (See PCT application no. PCT/CN2011/001597). In this preventive treatment model, the compound was administered at day 0 (day of immunization) and continued to administer until day 22. The study lasted for 25 days. Rats were subsequently monitored for symptoms of EAE. Rats were immunized with MBP to develop EAE and symptoms were monitored daily. Plasma Lp-PLA2 activity, OxLDL, and LysoPC concentration were determined at different time points through the course of EAE.

[2] = test system: proinflammatory (M1) and anti-inflammatory (M2) markers; assay: Ex vivo analysis of M1 and M2 markers in macrophages of EAE rats by realtime PCR; parameters: species or system rat; details: splenic macrophages day 13 post MBP-immunization and CNS infiltrating macrophages
Protocol: Ex vivo analysis of proinflammatory (M1) and anti-inflammatory (M2) markers in control and compound treated EAE rats. Splenic macrophages were harvested at day 13 post MBP-immunization and assayed for expression of a variety of markers by realtime PCR. CNS infiltrating cells were harvested and macrophages were analyzed for expression of M1 and M2 markers by realtime PCR.

[3] = molecular target: T1, recombinant human Lp-PLA2 (Homo sapiens, UniProt Q13093); assay: Recombinant human Lp-PLA2 assay (rhLp-PLA2, PED6 assay); assay type: biochemical
T1 sequence (Q13093 22-441): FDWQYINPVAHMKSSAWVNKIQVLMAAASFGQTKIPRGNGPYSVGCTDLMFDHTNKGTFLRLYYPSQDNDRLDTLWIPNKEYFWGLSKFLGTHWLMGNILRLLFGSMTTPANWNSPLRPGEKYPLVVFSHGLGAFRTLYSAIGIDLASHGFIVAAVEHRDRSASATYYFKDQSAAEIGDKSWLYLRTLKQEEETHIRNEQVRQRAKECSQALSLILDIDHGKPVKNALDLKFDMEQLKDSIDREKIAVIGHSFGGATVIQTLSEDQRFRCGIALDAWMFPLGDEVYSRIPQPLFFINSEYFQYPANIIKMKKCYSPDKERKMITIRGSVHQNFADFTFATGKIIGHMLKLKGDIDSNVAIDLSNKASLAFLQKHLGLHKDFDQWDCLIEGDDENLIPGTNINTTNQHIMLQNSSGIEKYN
In short: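 Enzyme (4 nM or 110 pM, as stated for the 5 μL addition) preincubated 30 min with compound in 50 mM HEPES pH 7.4, 150 mM NaCl, 1 mM CHAPS, then PED6 substrate (4 or 5 μM in the addition) added. Fluorescence (ex 480/em 540) read after 20 min, room temperature; pIC50 from curve fitting.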

[4] = molecular target: T2, Lp-PLA2 in human plasma (Homo sapiens, UniProt Q13093); assay: Lp-PLA2 human plasma assay (Thio-PAF assay); assay type: biochemical; details: pooled human plasma; read-out: pIC50 values in the thio-PAF assay (converted)
T2 construct: from tissue; host or cells: pooled human plasma
T2 sequence (Q13093 22-441): T1 sequence (Q13093 22-441)
In short: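 Pooled human plasma preincubated 30 min with compound, then 2-thio-PAF substrate added with CPM and NEM in 50 mM HEPES pH 7.4, 150 mM NaCl, 1 mM CHAPS. Quenched with TFA after 2 min, incubated 40 min at room temperature, and read by fluorescence at ex 380/em 485 nm. Values given as pIC50.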

[5] = read-out: pIC50 values in the recombinant human Lp-PLA2 assay (converted)
[6] = read-out: rhLp-PLA2 (PED6 assay) (pIC50) (converted)

SMILES	IC50 [3, 5] [nM]	IC50 [4] [nM]	also measured
COc1ccc2c(c1)CCn1c-2cc(Oc2ccc(Oc3cccc(C(F)(F)F)c3)c(C#N)c2)nc1=O [5-((9-Methoxy-4-oxo-6,7-dihydro-4H-pyrimido[6,1-a]isoquinolin-2-yl)oxy)-2-(3-(trifluoromethyl)phenoxy)benzonitrile]			Lp-PLA2 activity in rat EAE plasma ([1]; rat EAE plasma): decreased; LysoPC levels in rat EAE plasma ([1]; rat EAE plasma): decreased; clinical disease ([1]; rat EAE, administered day 0 until day 22): reduction in clinical disease; M1 markers [2]: decrease; M2 markers [2]: increase
CN1c2cc(OCc3ccc(Oc4ccc(F)c(C(F)(F)F)c4)c(C#N)c3)nc(=O)n2CCC1(C)C [E116, 2-(4-fluoro-3-(trifluoromethyl)phenoxy)-5-(((1,2,2-trimethyl-6-oxo-2,3,4,6-tetrahydro-1H-pyrimido[1,6-a]pyrimidin-8-yl)oxy)methyl)benzonitrile]	≤ 1	≤ 10	
C[C@H]1CCn2c(cc(OCc3ccc(Oc4ccc(F)c(F)c4)c(F)c3)nc2=O)N1C [E86, (S)-8-((4-(3,4-difluorophenoxy)-3-fluorobenzyl)oxy)-1,2-dimethyl-3,4-dihydro-1H-pyrimido[1,6-a]pyrimidin-6(2H)-one]	≤ 1	≤ 100	
C[C@@H]1CCn2c(cc(OCc3ccc(Oc4ccc(C(F)(F)F)cc4)c(F)c3)nc2=O)N1C [E121, (R)-8-((3-fluoro-4-(4-(trifluoromethyl)phenoxy)benzyl)oxy)-1,2-dimethyl-3,4-dihydro-1H-pyrimido[1,6-a]pyrimidin-6(2H)-one]	≤ 1	≤ 100	
CN1c2cc(OCc3cc(F)c(Oc4ccnc(C(F)(F)F)c4)c(F)c3)nc(=O)n2CCC1(C)C [E153]	≤ 1	≤ 10	
C[C@H]1CCn2c(cc(OCc3cc(F)c(Oc4ccc(F)c(F)c4)c(F)c3)nc2=O)N1C [E90, (S)-8-((4-(3,4-difluorophenoxy)-3,5-difluorobenzyl)oxy)-1,2-dimethyl-3,4-dihydro-1H-pyrimido[1,6-a]pyrimidin-6(2H)-one]	≤ 1	≤ 10	
C[C@@H]1CCn2c(cc(OCc3ccc(Oc4cnc(C(F)(F)F)nc4)c(F)c3)nc2=O)N1C [E110, (R)-8-((3-fluoro-4-((2-(trifluoromethyl)pyrimidin-5-yl)oxy)benzyl)oxy)-1,2-dimethyl-3,4-dihydro-1H-pyrimido[1,6-a]pyrimidin-6(2H)-one]	≤ 1	≤ 100	IC50 [3, 6]: 0.631 nM
C[C@H]1CCn2c(cc(OCc3ccc(Oc4cccc(C(F)(F)F)c4)c(C#N)c3)nc2=O)N1C [E98, (S)-5-(((1,2-dimethyl-6-oxo-2,3,4,6-tetrahydro-1H-pyrimido[1,6-a]pyrimidin-8-yl)oxy)methyl)-2-(3-(trifluoromethyl)phenoxy)benzonitrile]	≤ 1	≤ 10	
C[C@@H]1CCn2c(cc(OCc3cc(F)c(F)c(F)c3)nc2=O)N1 [E29, (R)-2-methyl-8-((3,4,5-trifluorobenzyl)oxy)-3,4-dihydro-1H-pyrimido[1,6-a]pyrimidin-6(2H)-one]		≤ 100	IC50 [3, 6]: 1.26 nM
C[C@@H]1CCn2c(cc(OCc3ccc(Oc4ccc(F)c(F)c4)c(F)c3)nc2=O)N1C [E80, (R)-8-((4-(3,4-difluorophenoxy)-3-fluorobenzyl)oxy)-1,2-dimethyl-3,4-dihydro-1H-pyrimido[1,6-a]pyrimidin-6(2H)-one]	≤ 1	≤ 100	
C[C@@H]1CCn2c(cc(OCc3ccc(Oc4cccc(C(F)(F)F)c4)c(C#N)c3)nc2=O)N1C [E123, (R)-5-(((1,2-dimethyl-6-oxo-2,3,4,6-tetrahydro-1H-pyrimido[1,6-a]pyrimidin-8-yl)oxy)methyl)-2-(3-(trifluoromethyl)phenoxy)benzonitrile]	≤ 1	≤ 10	
C[C@H]1CCn2c(cc(OCc3cc(F)c(Oc4ccc(F)cc4)c(F)c3)nc2=O)N1C [E94, (S)-8-((3,5-difluoro-4-(4-fluorophenoxy)benzyl)oxy)-1,2-dimethyl-3,4-dihydro-1H-pyrimido[1,6-a]pyrimidin-6(2H)-one]	≤ 1	≤ 100	
C[C@H]1CCn2c(cc(OCc3cc(F)c(Oc4cccc(F)c4)c(F)c3)nc2=O)N1C [E96]	≤ 1	≤ 100	
C[C@@H]1CCn2c(cc(OCc3cc(F)c(Oc4ccc(F)c(Cl)c4)c(F)c3)nc2=O)N1C [E109]	≤ 1	≤ 10	
C[C@H]1CCn2c(cc(OCc3cc(F)c(F)c(F)c3)nc2=O)N1C [E35, (S)-1,2-dimethyl-8-((3,4,5-trifluorobenzyl)oxy)-3,4-dihydro-1H-pyrimido[1,6-a]pyrimidin-6(2H)-one]	≤ 1	≤ 100	
C[C@@H]1CCn2c(cc(OCc3ccc(Oc4ccc(F)c(F)c4)c(C#N)c3)nc2=O)N1C [E114, (R)-2-(3,4-difluorophenoxy)-5-(((1,2-dimethyl-6-oxo-2,3,4,6-tetrahydro-1H-pyrimido[1,6-a]pyrimidin-8-yl)oxy)methyl)benzonitrile]	≤ 1	≤ 10	
CC1CCn2c(cc(OCc3cc(F)c(F)c(F)c3)nc2=O)N1C (centres unmarked) [E8, 1,2-dimethyl-8-((3,4,5-trifluorobenzyl)oxy)-3,4-dihydro-1H-pyrimido[1,6-a]pyrimidin-6(2H)-one]	≤ 1	≤ 100	IC50 [3, 6]: 0.398 nM
C[C@H]1CCn2c(cc(OCc3ccc(Oc4ccc(F)cc4)c(C#N)c3)nc2=O)N1C [E126, (S)-5-(((1,2-dimethyl-6-oxo-2,3,4,6-tetrahydro-1H-pyrimido[1,6-a]pyrimidin-8-yl)oxy)methyl)-2-(4-fluorophenoxyl)benzonitrile]	≤ 1	≤ 100	
C[C@H]1CCn2c(cc(OCc3ccc(Oc4cccc(C(F)(F)F)c4)c(F)c3)nc2=O)N1C [E91, (S)-8-((3-fluoro-4-(3-(trifluoromethyl)phenoxy)benzyl)oxy)-1,2-dimethyl-3,4-dihydro-1H-pyrimido[1,6-a]pyrimidin-6(2H)-one]	≤ 1	≤ 10	
C[C@H]1CCn2c(cc(OCc3ccc(Oc4ccc(C(F)(F)F)nc4)c(F)c3)nc2=O)N1C [E142, (S)-8-((3-fluoro-4-((6-(trifluoromethyl)pyridin-3-yl)oxy)benzyl)oxy)-1,2-dimethyl-3,4-dihydro-1H-pyrimido[1,6-a]pyrimidin-6(2H)-one]	≤ 1	≤ 10	
C[C@@H]1CCn2c(cc(OCc3cc(F)c(Oc4ccnc(C(F)(F)F)c4)c(F)c3)nc2=O)N1C [E144, (R)-8-((3,5-difluoro-4-((2-(trifluoromethyl)pyridin-4-yl)oxy)benzyl)oxy)-1,2-dimethyl-3,4-dihydro-1H-pyrimido[1,6-a]pyrimidin-6(2H)-one]	≤ 1	≤ 10	IC50 [3, 6]: 0.0251 nM
CN1c2cc(OCc3cccc(C#N)c3)nc(=O)n2CCC1(C)C [E133, 3-(((1,2,2-trimethyl-6-oxo-2,3,4,6-tetrahydro-1H-pyrimido[1,6-a]pyrimidin-8-yl)oxy)methyl)benzonitrile]	≤ 1	≤ 10	
[2H]C([2H])(Oc1cc2n(c(=O)n1)CCC(C)(C)N2C)c1cc(F)cc(F)c1 [E75, 8-((3,5-difluorophenyl)dideuteromethoxy)-1,2,2-trimethyl-3,4-dihydro-1H-pyrimido[1,6-a]pyrimidin-6(2H)-one]	≤ 1	≤ 100	
C[C@H]1CCn2c(cc(OCc3cc(F)c(Oc4ccc(F)c(Cl)c4)c(F)c3)nc2=O)N1C [E106, (S)-8-((4-(3-chloro-4-fluorophenoxy)-3,5-difluorobenzyl)oxy)-1,2-dimethyl-3,4-dihydro-1H-pyrimido[1,6-a]pyrimidin-6(2H)-one]	≤ 1	≤ 100	
C[C@H]1CCn2c(cc(OCc3ccc(Oc4cccc(F)c4)c(C#N)c3)nc2=O)N1C [E92, (S)-5-(((1,2-dimethyl-6-oxo-2,3,4,6-tetrahydro-1H-pyrimido[1,6-a]pyrimidin-8-yl)oxy)methyl)-2-(3-fluorophenoxy)benzonitrile]	≤ 1	≤ 10	
